{"source": "patent US20220362249A1", "about": "“METHODS FOR TREATING […]” (PTC Therapeutics MP, Inc., priority 2019, published 2022)", "test_system": "blood Phe", "experiment": "Reduction of blood Phe in patients with PKU, randomized crossover of PTC923 vs sapropterin dihydrochloride", "type": "in vivo, human", "details": "for Proportion of patients achieving blood Phe <360 μmol/L: n of 24; for Mean (SD) blood Phe, At baseline: Day 1 pre-dose; for Least squares mean (SE) change from baseline in blood Phe / Mean (SD) blood Phe, Change / Mean (SD) blood Phe, On treatment: 7 days; for Mean (SD) blood Phe, On treatment: mean of days 3, 5 and 7", "method": "Following screening for eligibility, a 7-day run-in period commenced. Patients then received 7 days of once-daily oral treatment with either PTC923 20 mg/kg/day (“low dose”), or PTC923 60 mg/kg/day or sapropterin dihydrochloride, in a random order. PTC923 (formerly CNSA-001) is oral sepiapterin. Each patient was randomized to one of six treatment sequences (FIG. 2). The randomization in six different treatment sequences was intended to minimize carry over effect, treatment period effect, patient fatigue, and natural fluctuations in blood Phe levels. A 7-day washout period separated each active treatment period. Patients were asked to maintain their usual pre-study diet, including consumption of amino acid mixtures if prescribed, and were monitored throughout the study by a metabolic dietician.\nBlood samples for measurement of Phe were taken on 7, 5, 3, and 1 days before randomization. During treatment periods, blood was taken pre-dose for day 1 and post-dose for days 3, 5 and 7. During the washout periods, blood was taken for measurement of Phe on days 1, 3, 5, and 7. All samples were taken under fasting conditions or no earlier than 3 hours following a meal and at the same time of day. Blood Phe was measured using a validated LC-MS-MS technique of dried blood sampling via Volumetric Absorptive Microsampling (VAMS®) using Mitra® 4-sampler clamshells, at a central bioanalytical laboratory (Agilex Biolabs Pty Ltd).\nThe main objective of the study was to assess the efficacy of PTC923 measured as the mean blood Phe change from baseline. The efficacy population consisted of all patients who were randomized and had blood Phe measurements before treatment and at days 3, 5 and 7 of treatment from at least one treatment period. The safety population consisted of all patients who were randomized and who received any dose of study treatment. The sample size calculation was based on an all-comers, placebo-controlled regulatory study of sapropterin with an observed mean decrease in blood Phe of 99 μmol/L and standard deviation of 220 μmol/L, and assumed a true mean decrease in blood Phe of 300 μmol/L with 80% power utilizing a 2-sided α of 0.05.\nResponse to PTC923 was evaluated by measuring the mean change from baseline in blood Phe (calculated as the mean of measurements at days 3, 5 and 7 of each treatment period). Day 1 pre-dose blood Phe concentrations for each treatment period served as the individual patient specific baseline for that period.\nThe change from baseline in blood Phe of each treatment period was modelled using a linear mixed model for repeated measures (MMRM). The efficacy model included fixed effects for baseline for each treatment period, treatment group, sequence, period, and a random subject effect within each sequence, with a first order autoregressive AR (1) covariance structure. No unplanned covariates were included.\nPairwise comparisons in changes from baseline in Phe were performed between each PTC923 treatment and sapropterin treatment by calculating the least squares means with Dunnet's method of adjustment for multiple comparisons. The estimated change in blood Phe levels, their standard errors (SE) and associated p-values were calculated for each pairwise comparison. Dunnet's method of adjustment was used to account for the multiple comparisons of the test groups against the control group. This adjustment ensured that the overall Type I error rate under the null hypothesis was maintained despite multiple test groups being compared to the single control group.\nThe overall mean changes in blood Phe for each treatment were calculated and the standard deviations (SD) were determined.\nA prespecified sensitivity analysis excluded treatment periods where baseline Phe was <300 μmol/L and a responder analysis looked at patients with baselines ≥300 μmol/L who responded to sapropterin and/or to PTC923 treatment by ≥20% reduction.", "key": {"[1]": {"details": "All subjects (N = 24), 20 mg/kg/day oral"}, "[2]": {"details": "All subjects (N = 24), 60 mg/kg/day oral"}, "[3]": {"details": "Subjects with classical PKU (N = 11), 20 mg/kg/day oral"}, "[4]": {"details": "Subjects with classical PKU (N = 11), 60 mg/kg/day oral"}, "[5]": {"details": "patients on PTC923 60mg/kg with at least 30% reduction in Phe"}}, "note": "Where “and” joins values, the source holds several entries; their conditions need not be identical. Identical values can stand only once.", "data": [{"smiles": "C[C@H](O)C(=O)C1=Nc2c(nc(N)[nH]c2=O)NC1", "note": "[sepiapterin, Sepiapterin]", "values": [{"measurement": "Proportion of patients achieving blood Phe <360 μmol/L", "setting": "20 mg/kg", "result": 46, "unit": "%"}, {"measurement": "Proportion of patients achieving blood Phe <360 μmol/L", "setting": "60 mg/kg", "result": 50, "unit": "%"}, {"measurement": "LSM difference in blood Phe change vs. sapropterin dihydrochloride", "setting": "11 patients with classical PKU, PTC923 60 mg/kg", "result": -148.0, "unit": "µmol/L"}, {"measurement": "Mean (SD) blood Phe, At baseline", "setting": "All subjects (N = 24), 20 mg/kg period", "result": "694.2 (396.0) μmol/L"}, {"measurement": "Least squares mean (SE) change from baseline in blood Phe", "setting": "[1]", "result": "−146.9 (41.8) μmol/L"}, {"measurement": "Mean (SD) blood Phe, Change", "setting": "[1]", "result": "−143.7 (224.8) μmol/L"}, {"measurement": "Mean (SD) blood Phe, On treatment", "setting": "[1]", "result": "550.4 (433.7) μmol/L"}, {"measurement": "Mean (SD) blood Phe, At baseline", "setting": "All subjects (N = 24), 60 mg/kg period", "result": "727.8 (388.2) μmol/L"}, {"measurement": "Least squares mean (SE) change from baseline in blood Phe", "setting": "[2]", "result": "−206.4 (41.8) μmol/L"}, {"measurement": "Mean (SD) blood Phe, Change", "setting": "[2]", "result": "−210.1 (235.8) μmol/L"}, {"measurement": "Mean (SD) blood Phe, On treatment", "setting": "[2]", "result": "517.7 (411.7) μmol/L"}, {"measurement": "Least squares mean change from baseline in blood Phe to first Phe measurement (Day 3)", "setting": "Day 3, 20 mg/kg", "result": -167.5, "unit": "µmol/L"}, {"measurement": "Least squares mean change from baseline in blood Phe to first Phe measurement (Day 3)", "setting": "Day 3, 60 mg/kg", "result": -206.6, "unit": "µmol/L"}, {"measurement": "LSM difference in blood Phe change vs. sapropterin dihydrochloride", "setting": "Day 3, PTC923 20 mg/kg, underlying changes in μmol/L", "result": "−95.2"}, {"measurement": "LSM difference in blood Phe change vs. sapropterin dihydrochloride", "setting": "Day 3, PTC923 60 mg/kg, underlying changes in μmol/L", "result": "−131.3"}, {"measurement": "Effect on blood Phe compared with sapropterin dihydrochloride 20 mg/kg (in words)", "setting": "PTC923 20 mg/kg", "result": "numerically larger"}, {"measurement": "Reducing blood Phe compared with sapropterin dihydrochloride 20 mg/kg (in words)", "setting": "PTC923 60 mg/kg, p=0.0098", "result": "significantly more effective"}, {"measurement": "Mean absolute reduction in plasma phenylalanine (FIG. 1)", "setting": "PTC923 (60 mg/kg/day)", "result": "over 200 micromole per liter"}, {"measurement": "Mean (SD) blood Phe, At baseline", "setting": "Subjects with classical PKU (N = 11), 20 mg/kg period", "result": "944.6 (354.6) μmol/L"}, {"measurement": "Mean (SD) blood Phe, Change", "setting": "[3]", "result": "−75.5 (201.8) μmol/L"}, {"measurement": "Least squares mean (SE) change from baseline in blood Phe", "setting": "Subjects with classical PKU (N = 11), 20 mg/kg/day oral, listed as PTC923, 20 mg/kg/day", "result": "−71.5 μmol/L and −71.5 (61.8) μmol/L"}, {"measurement": "Mean (SD) blood Phe, On treatment", "setting": "[3]", "result": "869.1 (424.1) μmol/L"}, {"measurement": "Mean (SD) blood Phe, At baseline", "setting": "Subjects with classical PKU (N = 11), 60 mg/kg period", "result": "947.2 (363.0) μmol/L"}, {"measurement": "Mean (SD) blood Phe, Change", "setting": "[4]", "result": "−146.0 (187.7) μmol/L"}, {"measurement": "Least squares mean (SE) change from baseline in blood Phe", "setting": "Subjects with classical PKU (N = 11), 60 mg/kg/day oral, listed as PTC923, 60 mg/kg/day", "result": "−150.8 μmol/L and −150.8 (63.1) μmol/L"}, {"measurement": "Mean (SD) blood Phe, On treatment", "setting": "[4]", "result": "801.2 (396.5) μmol/L"}, {"measurement": "Classical PKU subjects responding with a decrease in phenylalanine levels of at least 20%", "setting": "classical PKU subjects", "result": "about 45%"}, {"measurement": "Number of patients showing blood Phe reduction of ≥20%, higher than with sapropterin", "setting": "cofactor responder analysis", "result": 50, "unit": "%"}, {"measurement": "Number of subjects normalized (day 7 blood phenylalanine less than 120 micromole per liter) compared to sapropterin dihydrochloride", "setting": "day 7", "result": "3-4 times"}, {"measurement": "Least squares mean change from baseline in blood Phe", "setting": "group of 12 responders (Phe reduction ≥20%, baseline ≥300 μmol/L), 20 mg/kg", "result": -234.8, "unit": "µmol/L"}, {"measurement": "Least squares mean change from baseline in blood Phe", "setting": "group of 12 responders (Phe reduction ≥20%, baseline ≥300 μmol/L), 60 mg/kg", "result": -322.2, "unit": "µmol/L"}, {"measurement": "LSM difference in blood Phe change vs. sapropterin dihydrochloride", "setting": "group of 12 responders, PTC923 60 mg/kg", "result": -182.5, "unit": "µmol/L"}, {"measurement": "Subject-reported effects (in words)", "setting": "human, in vivo", "result": "improvement in sleep quality and better focus"}, {"measurement": "Times more likely to reach normalized blood phenylalanine (less than 120 micromole per liter) compared to sapropterin dihydrochloride", "setting": "human, in vivo", "result": 13.45, "unit": "times"}, {"measurement": "Non-classical subjects normalized (blood phenylalanine less than 120 micromole per liter)", "setting": "non-classical subjects", "result": 46, "unit": "%"}, {"measurement": "Proportion of patients achieving blood Phe <360 μmol/L", "setting": "on either dose of PTC923", "result": 54, "unit": "%"}, {"measurement": "More subjects responded than to sapropterin dihydrochloride", "setting": "overall responders", "result": 60, "unit": "%"}, {"measurement": "Absolute Phe reduction from baseline", "setting": "[5]", "result": -485.3, "unit": "µmol/L"}, {"measurement": "Absolute mean percentage change in Phe from baseline", "setting": "[5]", "result": -72.5, "unit": "%"}, {"measurement": "Least squares mean change from baseline in blood Phe", "setting": "sensitivity analysis population (excluding periods with baseline Phe <300 μmol/L), 20 mg/kg", "result": -167.8, "unit": "µmol/L"}, {"measurement": "Least squares mean change from baseline in blood Phe", "setting": "sensitivity analysis population (excluding periods with baseline Phe <300 μmol/L), 60 mg/kg", "result": -226.9, "unit": "µmol/L"}, {"measurement": "LSM difference in blood Phe change vs. sapropterin dihydrochloride", "setting": "sensitivity analysis population, PTC923 60 mg/kg", "result": -121.4, "unit": "µmol/L"}]}]}
